Data on 23 molecules can be found in patent US20240101552A1, “CARBONYL HETEROCYCLIC COMPOUND AND APPLICATION THEREOF” (SHANGHAI PHARMACEUTICALS HOLDING CO., LTD., priority 2020, published 2024).

As a reminder, the Kd is the free concentration of one partner at which half of the binding sites on the other are occupied at equilibrium, for simple one-to-one binding. Low values mean higher affinity, high ones lower affinity.

The target of this assay is LANCL2 (Homo sapiens (Human), UniProt Q9NS86). The assay can be described thus: SPR (BIACORE S200) kinetic determination of LANCL2-small molecule interactions. Format: binding. Particulars: for Kd: immobilized LANCL2, 1:1 binding model, pH 6.5, 25° C.; for Rmax (RU): maximum binding force. As to the method:
1.1 Reagent Materials • Ligand: LANCL2 • Running buffer: 20 mM MES, 150 mM NaCl, 0.05% P20, pH 6.5, 1% DMSO
Injection conditions for small molecule compounds: a flow rate of 30 μL/min, a binding time of 60 s, a dissociation time of 300 s.
Running buffer: 20 mM MES, 150 mM NaCl, 0.05% P20, pH 6.5, 1% DMSO.
Sample chamber temperature: 25° C.; analysis temperature: 25° C.
Kinetic determination of LANCL2-small molecule interactions was performed. The kinetic parameters of small molecules BT-11 and L-1 to 60 (analytes) binding to LANCL2 (ligand) were determined using BIACORE S200. Data were generated in triplicate in a dose-dependent manner (5-8 titration points) and analyzed to determine binding models (Langmuir, conformational shifts, etc.), real-time association and dissociation constants, and equilibrium dissociation constants. SPR technology allows the validation of specific LANCL2-phytochemical interactions as well as an increased insight into the gold standard of binding mechanisms and rates. Experiments were performed on carboxymethyl polydextrose (CM5) sensor chips by amine-coupled covalent attachment of LANCL2. Data were analyzed with BIACORE S200T200 evaluation software (version 1), so as to determine affinity binding constants (KD) using a 1:1 binding model.
An optical technique for detecting molecular interactions, SPR, was used to measure the binding affinity between LANCL2 and a ligand thereof (compound to be tested). Purified recombinant LANCL2 protein was immobilized on a BIACORE sensor chip and small molecules were injected onto the protein surface using an equipment of microfluidic system. The change in total mass on the chip surface, corresponding to a small binding to the protein, was measured. […] The equilibrium dissociation constant (Kd) was often used to describe the affinity between a ligand and a protein, such as affinity degree of a ligand binding to a specific protein. Ligand-protein affinity was affected by non-covalent intermolecular interactions between two molecules, such as hydrogen bonding, electrostatic interactions, hydrophobic bonds and van der Waals forces. The steady-state affinity (Kd) for each interaction could be measured by plotting equilibrium binding levels against compound concentrations.
A general note: SPR reads the build-up and loss of mass on a sensor chip optically.

LANCL2, sequence (Q9NS86 whole entry, species assumed): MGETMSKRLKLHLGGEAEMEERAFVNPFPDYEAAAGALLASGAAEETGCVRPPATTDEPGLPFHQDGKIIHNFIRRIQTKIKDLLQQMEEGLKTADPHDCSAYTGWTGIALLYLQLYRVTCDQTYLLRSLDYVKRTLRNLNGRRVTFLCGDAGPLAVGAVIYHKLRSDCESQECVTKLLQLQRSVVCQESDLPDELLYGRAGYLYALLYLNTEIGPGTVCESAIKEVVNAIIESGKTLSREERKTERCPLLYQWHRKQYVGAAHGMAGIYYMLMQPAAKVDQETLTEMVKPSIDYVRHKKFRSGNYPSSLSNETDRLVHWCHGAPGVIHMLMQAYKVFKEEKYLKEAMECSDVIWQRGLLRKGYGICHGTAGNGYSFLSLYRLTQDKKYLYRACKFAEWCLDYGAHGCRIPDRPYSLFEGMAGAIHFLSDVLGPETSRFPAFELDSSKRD

Take `O=C(N[C@H]1[C@@H]2CN(C(=O)c3sccc3-n3cccc3)C[C@@H]21)c1cccc(-c2cn3ccccc3n2)c1` [Embodiment L-104, N-((1R,5S,6s)-3-(3-(1H-pyrrol-1-yl)thiophene-2-carbonyl)-3-azabicyclo[3.1.0]hexan-6-yl)-3-(imidazo[1,2-a]pyridin-2-yl)benzamide]: the Kd worked out at 12.5 µM and the “Rmax (RU)” value worked out at 9.7 RU.

`NC(=O)c1sccc1NC(=O)c1ccc(C(=O)N2CCC3(CC2)CCN(C(=O)c2cccc(-c4cn5ccccc5n4)c2)CC3)cc1` [Embodiment L-96, 3-(4-(9-(3-(imidazo[1,2-a]pyridin-2-yl)benzoyl)-3,9-diazaspiro[5.5]undecane-3-carbonyl)benzamido)thiophene-2-carboxamide]: the “binding activity compared with positive reference compound BT-11” value is given as “better binding activities than the positive reference compound BT-11”, the Kd turned out to be 1.91 µM and the “Rmax (RU)” value amounted to 2.3 RU.

For `O=C(c1cccc(-c2cn3ccccc3n2)c1)N1CCC2(CC1)CCN(C(=O)c1cccc(Nc3ccccc3)n1)CC2` [Embodiment L-72, (9-(3-(imidazo[1,2-a]pyridin-2-yl)benzoyl)-3,9-diazaspiro[5.5]undecan-3-yl)(6-(phenylamino)pyridin-2-yl)methanone], the Kd worked out at 6.93 µM and the “Rmax (RU)” value is listed as 5.3 RU.

In the case of `O=C(NC1CCN(C(=O)c2cccc(-c3cn4ccccc4n3)c2)CC1)c1cccc(-c2cn3ccccc3n2)c1` [Embodiment L-88, 3-(imidazo[1,2-a]pyridin-2-yl)-N-(1-(3-(imidazo[1,2-a]pyridin-2-yl)benzoyl)piperidin-4-yl)benzamide], binding was characterised by a dissociation constant (Kd) of 16.4 µM and the “Rmax (RU)” value was 9.7 RU.

For the molecule `O=C(NC1C2CN(C(=O)c3cccc(-c4nc5ccccc5[nH]4)n3)CC21)c1ccnc(N2CCOCC2)n1` [Embodiment L-14, N-(3-(6-(1H-benzo[d]imidazol-2-yl)picolinoyl)-3-azabicyclo[3.1.0]hexan-6-yl)-2-morpholinopyrimidine-4-carboxamide], the Kd is 21.1 µM and the “Rmax (RU)” value is 7.1 RU.

Take `O=C(c1cccc(-c2nc3ccccc3[nH]2)n1)N1CC2CN(C(=O)c3ccc4ccccc4n3)CC2C1` [Embodiment L-69, (5-(6-(1H-benzo[d]imidazol-2-yl)picolinoyl)hexahydropyrrolo[3,4-c]pyrrol-2(1H)-yl)(quinolin-2-yl)methanone]: the Kd was 21.7 µM and the “Rmax (RU)” value is reported as 6.1 RU.

Consider `O=C(c1ccc(-c2ccccc2)cc1)N1CC2CN(C(=O)c3cccc(-c4nc5ccccc5[nH]4)n3)CC2C1` [Embodiment L-127, (5-(6-(1Hbenzo[d]imidazol-2-yl)picolinoyl)hexahydropyrrolo[3,4-c]pyrrol-2(1H)-yl)([1,1′-biphenyl]-4-yl)methanone], for which the affinity, expressed as Kd, was 9.38 µM and the “Rmax (RU)” value is recorded as 5.1 RU.

Consider `Cc1cn(-c2cccc(C(=O)N3CCC4(CCN(C(=O)c5cccc(-c6cn7ccccc7n6)c5)CC4)CC3)c2)cn1` [Embodiment L-92, (9-(3-(imidazo[1,2-a]pyridin-2-yl)benzoyl)-3,9-diazaspiro[5.5]undecan-3-yl)(3-(4-methyl-1H-imidazol-1-yl)phenyl)methanone], for which the Kd turned out to be 58.8 µM and the “Rmax (RU)” value is 11 RU.

For the molecule `O=C(c1ccnc(Nc2ccccn2)c1)N1CC2CN(C(=O)c3cccc(-c4cn5ccccc5n4)n3)CC2C1` [Embodiment L-54, (5-(6-(imidazo[1,2-a]pyridin-2-yl]picolinoyl)hexahydropyrrolo[3,4-c]pyrrol-2(1H)-yl)(2-(pyridin-2-ylamino)pyridin-4-yl)methanone], the dissociation constant Kd was determined as 27.8 µM and the “Rmax (RU)” value was 8.4 RU.

For the molecule `Cc1ccc(C(=O)N2CCC3(CCN(C(=O)c4cccc(-c5cn6ccccc6n5)c4)CC3)CC2)cc1NC1=CC(=O)c2ccccc2C1=O` [Embodiment L-95, 2-((5-(9-(3-(imidazo[1,2-a]pyridin-2-yl)benzoyl)-3,9-diazaspiro[5.5]undecane-3-carbonyl)-2-methylphenyl)amino)naphthalene-1,4-dione], the “binding activity compared with positive reference compound BT-11” value is on record as “better binding activities than the positive reference compound BT-11”, the Kd came out at 2.09 µM and the “Rmax (RU)” value is 5.2 RU.

Turning to `O=C(c1cnc2ccccc2c1)N1CC2CN(C(=O)c3cccc(-c4nc5ccccc5[nH]4)n3)CC2C1` [Embodiment L-122, (5-(6-(1Hbenzo[d]imidazol-2-yl)picolinoyl)hexahydropyrrolo[3,4-c]pyrrol-2(1H)-yl)(quinolin-3-yl)methanone], the Kd stood at 10.3 µM and the “Rmax (RU)” value was found to be 7 RU.

Regarding `O=C(NC1C2CN(C(=O)c3cccc(-c4nc5ccccc5s4)c3)CC21)c1cccc(-c2nc3ccccc3[nH]2)n1` [Embodiment L-77, 6-(1H-benzo[d]imidazol-2-yl)-N-(3-(3-(benzo[d]thiazol-2-yl)benzoyl)-3-azabicyclo[3.1.0]hexane-6-yl)picolinamide], the “binding activity compared with positive reference compound BT-11” value was “better binding activities than the positive reference compound BT-11”, the Kd was found to be 1.9 µM and the “Rmax (RU)” value was 7.3 RU.

Take `O=C(NC1CCN(C(=O)c2ccnc(Nc3ccccc3)n2)CC1)c1cccc(Nc2ccccc2)n1` [Embodiment L-81, 6-(phenylamino)-N-(1-(2-(phenylamino)pyrimidine-4-carbonyl)piperidin-4-yl)picolinamide]: the Kd was determined as 23 µM and the “Rmax (RU)” value is recorded as 10.5 RU.

Consider `O=C(c1cccc(-c2nc3ccccc3[nH]2)n1)N1CCC2(CC1)CCN(C(=O)c1cccc(-c3nc4ccccc4[nH]3)n1)C2` [Embodiment L-59, (2,8-diaza[4.5]decane-2,8-diyl)bis(6-(1H-benzo[d]imidazol-2-yl)pyridin-2-yl)methanone], for which the Kd turned out to be 14.9 µM and the “Rmax (RU)” value is given as 3.6 RU.

As to `O=C(c1cccc(Nc2ccccc2)n1)N1CCC2(CC1)CCN(C(=O)c1ccnc(Nc3ccccc3)n1)CC2` [Embodiment L-80, (9-(6-(phenylamino)picolinoyl)-3,9-diazaspiro[5.5]undecan-3-yl)(2-(phenylamino)pyrimidin-4-yl)methanone], the Kd was found to be 28.4 µM and the “Rmax (RU)” value turned out to be 8.5 RU.

On to `O=C(c1cccc(-c2nc3ccccc3[nH]2)n1)N1CC2CN(C(=O)C3CCC(c4ccc(Cl)cc4)CC3)CC2C1` [Embodiment L-126, (5-(6-(1Hbenzo[d]imidazol-2-yl)picolinoyl)hexahydropyrrolo[3,4-c]pyrrol-2(1H)-yl)(4-(4-chlorophenyl)cyclohexyl)methanone], for which the Kd was 40.5 µM and the “Rmax (RU)” value is 3.3 RU.

`Cc1ccc(C(=O)N2CC3C(C2)C3NC(=O)c2cccc(-c3nc4ccccc4[nH]3)n2)cc1NC1=CC(=O)c2ccccc2C1=O` [Embodiment L-91]: the Kd turned out to be 1.71 µM and the “Rmax (RU)” value is on record as 5.2 RU.

For `O=C(Nc1ccccc1NC(=O)c1ccnc(N2CCOCC2)n1)c1ccnc(N2CCOCC2)n1` [Embodiment L-13, N,N′-(1,2-phenylene)bis(2-morpholinopyrimidine-4-carboxamide)], the Kd is 38.3 µM and the “Rmax (RU)” value worked out at 1.5 RU.

Take `O=C(c1ccc(-c2nc3ccccc3[nH]2)nc1)N1CCC2(CCN(C(=O)c3cccc(-c4nc5ccccc5[nH]4)n3)C2)C1` [Embodiment L-60, (7-(6-(1H-benzo[d]imidazol-2-yl)nicotinoyl)-2,7-diazaspiro[4.4]nonan-2-yl)(6-(1H-benzo[d]imidazol-2-yl)pyridin-2-yl)methanone]: the dissociation constant (Kd) was 27.4 µM and the “Rmax (RU)” value worked out at 3.6 RU.

For `O=C(c1ccnc(Nc2ccccc2)n1)N1CC2CN(C(=O)c3ccnc(Nc4ccccc4)n3)CC2C1` [Embodiment L-83], the affinity, expressed as Kd, was 53.7 µM and the “Rmax (RU)” value was found to be 9.6 RU.

As for `O=C(c1cccc(-c2nc3ccccc3[nH]2)n1)N1CC2CN(C(=O)c3ccnc(Nc4ccc(F)cc4)n3)CC2C1` [Embodiment L-82], binding was characterised by a dissociation constant (Kd) of 42.3 µM and the “Rmax (RU)” value came out at 9.4 RU.

For the molecule `O=C(c1cccc(-c2nc3ccccc3[nH]2)n1)N1CCC(c2nc3ccccc3[nH]2)CC1` [Embodiment L-57, (4-(1H-benzo[d]imidazol-2-yl)piperidin-1-yl)(6-(1H-benzo[d]imidazol-2-yl)pyridin-2-yl)methanone], the Kd was 8.02 µM and the “Rmax (RU)” value is given as 8 RU.

Regarding `Cc1ccc2cc(C(=O)N3CC4CN(C(=O)c5cccc(-c6nc7ccccc7[nH]6)n5)CC4C3)ccc2n1` [Embodiment L-125, (5-(6-(1Hbenzo[d]imidazol-2-yl)picolinoyl)hexahydropyrrolo[3,4-c]pyrrol-2(1H)-yl)(2-methylquinolin-6-yl)methanone], binding was characterised by a dissociation constant (Kd) of 23.5 µM and the “Rmax (RU)” value is reported as 5.2 RU.
